# Results taken from US5277897A, “In vivo enhancement of cellular accumulation of lipophilic cationic organometallic compounds by reduction of intramembrane potential” (Brigham and Women's Hospital, priority 1992, dated 1994).
# System: cultured chick heart cells
# Test: Influence of TPB and CCCP on (membrane potential-independent) accumulation of Tc-MIBI (FIG. 4)
# Assay type: cell-based
# Settings: n=3-4
# Protocol: FIG. 4. […] Preparations were incubated for the times indicated in 5.4 mM Ko control loading buffer containing tracer Tc-MIBI and TPB together (Δ) or in loading buffer containing Tc-MIBI alone (.quadrature.). For the latter incubation, TPB was added to the loading buffer at the arrow and cell content of Tc-MIBI subsequently determined (o). Under each condition, CCCP was added to the loading buffers as indicated by the arrows and cell content of Tc-MIBI determined ( , , ·). Each point is the mean ±SEM of 3 determinations.
# Monolayers of spontaneously contractile chick ventricular myocardial cells were obtained from disaggregated 10-day old chick embryo hearts by a slight modification of previously published methods (Horres, C. R., et al., In Pinson, A. (ed.), The Heart Cell in Culture, Boca Raton, CRC Press, pp. 77-108 (1987)). Hearts were trimmed of connective tissue and atria, finely minced and serially exposed to 0.024% (w/v) trypsin in Ca^2+ - and Mg^2+ - free Earle's salt solution for 7 minutes at 37° C. Gentle trituration and agitation on an orbital shaker bath aided disaggregation. Cells released from the first exposure were discarded and cells aspirated from the next four exposures were then added to an equal volume of trypsin deactivating solution consisting of ice-cold culture medium. Cells were centrifuged at 400 g for 10 minutes, resuspended and combined in culture medium, counted with a hemocytometer and diluted to yield a suspension of 5×10^5 cells/ml. 12 ml of suspension were incubated in 100 mm plastic culture dishes containing 7 coverslips (25 mm diameter) placed on the bottom of each dish to serve as substrate for cell growth. Cells were maintained in a humidified atmosphere of 5% CO2 /95% air for 3-4 days yielding a confluent layer of spontaneously contractile myocytes on each coverslip.
# Radioactive uptake methods have been described in detail (Piwnica-Worms, D., et al, Circ. (in press). Briefly, coverslips with confluent cells were removed from culture media and pre-equilibrated for 40-60 seconds in MEBSS buffer. Uptake and retention experiments were initiated by immersion of coverslips in 60 mm glass Pyrex dishes containing loading solution consisting of buffer with 0.1-0.6 nM [^99m Tc-MIBI] (0.01-0.4 Ci/nmole; 25-100 uCi/ml). Preparations were removed at various times and rinsed three times in 25 ml volumes of ice-cold (2° C.) isotope-free buffer for 8 seconds each to clear extracellular spaces. Preparations and aliquots of the loading buffer and stock solutions were counted in a well-type sodium iodide gamma counter after which cell protein on each coverslip was extracted in 1% sodium dodecylsulfate with 10 mM sodium borate and assayed by the method of Lowry (Lowry, O. H., et al., J. Biol. Chem. 193:265-275 (1951)). Tc-MIBI binding to glass coverslips without cells was used as an estimate of non-specific adhesion to the substrate ([…] obtained with cellular preparations); this value was subtracted from total uptake determinations to derive the cell-associated counts. Use of generator equilibrium equations (Lamson, M. L., et al., i J. Nucl. Med. 16:639-641 (1975)) allowed calculation of absolute moles of Tc-MIBI in solutions and preparations. Results were therefore expressed as fmol cellular Tc-MIBI/mg protein per nM extracellular Tc-MIBI concentration. […]
smiles,measurement,setting,value
"[C-]#[N+]CC(C)(C)OC.[C-]#[N+]CC(C)(C)OC.[C-]#[N+]CC(C)(C)OC.[C-]#[N+]CC(C)(C)OC.[C-]#[N+]CC(C)(C)OC.[C-]#[N+]CC(C)(C)OC.[Tc] [Tc-MIBI, hexakis(methoxyisobutylisonitrile)technetium(I)]",Tc-MIBI 2 min uptake,"+5×10^-6 M TPB, 5 seconds pre-incubation",20.6±0.43 fmol Tc-MIBI/mg protein per nM
same,Tc-MIBI 2 min uptake,"+10^-7 M TPB, 5 seconds pre-incubation",3.37±0.57 fmol Tc-MIBI/mg protein per nM
same,Tc-MIBI 2 min uptake,control (no TPB),1.23±0.15 fmol Tc-MIBI/mg protein per nM
